In ChEMBL document CHEMBL3507680, “University of Dundee, Gates Library screen for HepG2 cell viability” one finds cytotoxicity data, which are given here for 104 compounds.

The series in a line: Human HepG2 cell viability assay in 384 well format. The class given is toxicity, cell-based. On the set-up: dose 125 nL, time 70.5 hour; concentration not given beside the values. Conditions: HepG2 cells, read-out: Inhibition.
`Cc1cccc(C2(C(=O)NCC(C)CN3CCCC3=O)CC2)c1` (centres undefined): the cytotoxicity at 70.5 h is -11.5%.

`NC(=O)C1CCN(C(=O)c2ccccc2OCc2ccncc2)CC1`: the cytotoxicity at 70.5 h was -12.3%.

As for `Cc1cccc(COc2ccccc2C(=O)N2CCC(C(N)=O)CC2)c1`, the cytotoxicity at 70.5 h came to 4.8%.

Turning to `Oc1ccc(N2CCN(Cc3ccc(F)cc3Br)CC2)cc1`, the cytotoxicity at 70.5 h was -7.04%.

As for `Cc1nc2cc(C(=O)N(CCC#N)CCC#N)ccc2n1C`, the cytotoxicity at 70.5 h is -6.33%.

Take `CN(Cc1ccccc1)CC(C)(C)NC(=O)c1ccc(C(N)=O)cn1`: the cytotoxicity at 70.5 h is 1.67%.

As for `Cc1ccc(Br)c(S(=O)(=O)NCc2cnn(C)c2)c1`, the cytotoxicity at 70.5 h was -5.3%.

For the compound `Cn1ccnc1-c1noc(NCc2ccc(Cl)cc2)n1`, the cytotoxicity at 70.5 h was -8.5%.

For `Cn1ccnc1-c1noc(NCc2ccc(Br)cc2)n1`, the cytotoxicity at 70.5 h is -7.73%.

As for `Cn1ccnc1-c1noc(NCc2ccccc2)n1`, the cytotoxicity at 70.5 h is -7.49%.

On to `CCc1noc(CS(=O)(=O)CC=C(C)C)n1`, for which the cytotoxicity at 70.5 h was -9.04%.

With `CC(=O)NCCCNCc1c(C)nn(CC(C)C)c1N(C)C`, the cytotoxicity at 70.5 h was -5.4%.

Consider `CNS(=O)(=O)CC(=O)N(Cc1ccccc1)c1ccc(C)cc1`, for which the cytotoxicity at 70.5 h is -5.84%.

In the case of `CN(Cc1ccccc1)CC(C)(C)NC(=O)c1ccon1`, the cytotoxicity at 70.5 h is -4.18%.

Regarding `CCOCc1ccc(CNc2nc(OC)ncc2Cl)cc1`, the cytotoxicity at 70.5 h was -10.8%.

As for `COC1CCCN(C(=O)NCC(C)(C)SC)C1` (centres undefined), the cytotoxicity at 70.5 h was -11.6%.

`Cc1ccc(-c2ncc(CN3CCOC(c4ccco4)C3)s2)o1` (centres undefined): the cytotoxicity at 70.5 h is -6.87%.

Consider `O=C(C1CCCN(Cc2cccnc2)C1)N1CCc2sccc2C1` (centres undefined), for which the cytotoxicity at 70.5 h is -5.24%.

Take `OCCCN(CCn1cncn1)c1ccccc1`: the cytotoxicity at 70.5 h is 30.6%.

In the case of `CC(NS(=O)(=O)CCc1ccccn1)c1ccccc1Br` (centres undefined), the cytotoxicity at 70.5 h stood at 33.3%.

For the compound `Cc1csc(CNC(=O)NC(C)c2ccc3c(c2)OCCO3)n1` (centres undefined), the cytotoxicity at 70.5 h is 5.07%.

Regarding `CN(C)S(=O)(=O)N1CCN(C(=O)c2cc(-c3ccccc3)[nH]n2)CC1`, the cytotoxicity at 70.5 h is -0.515%.

Take `COCCCNC(=O)Nc1cccc(Cl)c1-n1cccn1`: the cytotoxicity at 70.5 h is -3.36%.

With `CN(C)CC(NC(=O)c1ccn(C)c(=O)c1)c1ccccc1` (centres undefined), the cytotoxicity at 70.5 h was found to be 0.262%.

For `CC(NC(=O)COC1CCCC1)c1nc(-c2ccccc2)c[nH]1` (centres undefined), the cytotoxicity at 70.5 h is -1.37%.

With `CNC(=O)C(NC(=O)c1ccn(C)c(=O)c1)c1ccccc1` (centres undefined), the cytotoxicity at 70.5 h worked out at 33.4%.

Regarding `NC(=O)C1CCCN1C1CCN(C(=O)c2ccc3c(c2)OCO3)CC1` (centres undefined), the cytotoxicity at 70.5 h was -1.65%.

For `O=C(c1cccc2c1OCO2)N1CCC(N2CCCC2)CC1`, the cytotoxicity at 70.5 h is -1.7%.

As to `CCOCC(=O)NS(=O)(=O)c1ccc(F)cc1C(F)(F)F`, the cytotoxicity at 70.5 h was -4.87%.

In the case of `COCCS(=O)(=O)NC(C)c1cccc(C)c1C` (centres undefined), the cytotoxicity at 70.5 h was determined as 28.4%.

For `CC(Sc1n[nH]c(-c2ccc3c(c2)CCC3)n1)C(N)=O` (centres undefined), the cytotoxicity at 70.5 h came out at 0.8%.

Turning to `CS(=O)(=O)CCCSc1n[nH]c(-c2ccc3c(c2)CCC3)n1`, the cytotoxicity at 70.5 h was -1.26%.

Turning to `CN1C(=O)CCc2cc(NC(=O)C3CC(=O)N(CC4CC4)C3)ccc21` (centres undefined), the cytotoxicity at 70.5 h is 2.59%.

Take `Brc1ccc(NCc2ccc(Cn3ccnc3)cc2)nc1`: the cytotoxicity at 70.5 h is 43.7%.

`NC(=O)CCSc1n[nH]c(-c2ccc3c(c2)CCC3)n1`: the cytotoxicity at 70.5 h was -1.76%.

With `CCc1n[nH]c(C2CN(Cc3csc(COC)n3)CCO2)n1` (centres undefined), the cytotoxicity at 70.5 h is -7.86%.

Consider `COCCN1CC=C(c2cccc(OC)c2)CC1`, for which the cytotoxicity at 70.5 h turned out to be 1.42%.

On to `CCCc1noc(CS(=O)(=O)c2cccc(OC)c2)n1`, for which the cytotoxicity at 70.5 h is -5.69%.

As to `CC(C)N(Cc1cccnc1)C(=O)CSc1ccc(C#N)cc1`, the cytotoxicity at 70.5 h was -8.92%.

In the case of `CS(=O)(=O)c1nccn1CCOc1ccc(F)cc1Cl`, the cytotoxicity at 70.5 h was -2.15%.

Turning to `COc1ccc2c(c1)CC(NCCCn1cc(C)cn1)CC2` (centres undefined), the cytotoxicity at 70.5 h was 1.45%.

Turning to `CC(NCCN1CCC(N(C)C)CC1)c1ccc(F)cc1N(C)C` (centres undefined), the cytotoxicity at 70.5 h was found to be 15%.

`CC1CCN(CC(O)CN2CCn3c(nnc3C3CC3)C2)CC1` (centres undefined): the cytotoxicity at 70.5 h stood at 35.7%.

In the case of `Cc1cnn(CCNCc2nc(-c3ccsc3)oc2C)c1`, the cytotoxicity at 70.5 h was 7.72%.

For `c1ccc2nc(NCC3(N4CCOCC4)CCSC3)cnc2c1` (centres undefined), the cytotoxicity at 70.5 h worked out at 28.5%.

As to `c1nc(NCC2(N3CCOCC3)CCSC2)c2sccc2n1` (centres undefined), the cytotoxicity at 70.5 h is -4.54%.

As for `Cc1cc(C)cc(C(C)NC(=O)c2ccc(CS(C)(=O)=O)o2)c1` (centres undefined), the cytotoxicity at 70.5 h is -3.42%.

In the case of `Cc1nc(S(=O)(=O)CCn2cccn2)n(C2CCCCC2)c1C`, the cytotoxicity at 70.5 h is -4.93%.

For the compound `CS(=O)(=O)CCOCCNc1cncc(Br)c1`, the cytotoxicity at 70.5 h is -3.24%.

Regarding `CCc1cnc(CNC(=O)N2CCCC(C(=O)NC)C2)s1` (centres undefined), the cytotoxicity at 70.5 h came to 12.5%.

For `CCC(O)CN1CCN(C(=O)Cc2c(C)nc(C)[nH]c2=O)CC1` (centres undefined), the cytotoxicity at 70.5 h came to 3.13%.

In the case of `c1csc(-c2nnc(CSCCN3CCOCC3)o2)c1`, the cytotoxicity at 70.5 h is 12.2%.

For `COc1cc(CNc2nncs2)cc(OC)c1OC`, the cytotoxicity at 70.5 h was determined as 12.6%.

For `COc1ccc(CNc2nncs2)cc1F`, the cytotoxicity at 70.5 h is -2.65%.

For the compound `Fc1cc(CNc2nncs2)ccc1Cl`, the cytotoxicity at 70.5 h is -2.31%.

Turning to `Cc1cccc(C(C)CNC(=O)N2CCC3(C2)OCCO3)c1` (centres undefined), the cytotoxicity at 70.5 h is 12.8%.

As for `COCCOCCNc1cncc(Br)c1`, the cytotoxicity at 70.5 h is -0.213%.

For the compound `CCCN(C)CC1CCN(c2ccc(Br)c(C)n2)C1` (centres undefined), the cytotoxicity at 70.5 h is 4.09%.

For `OC1CCN(Cc2ccc(CNc3ncc(Cl)cc3F)cc2)CC1`, the cytotoxicity at 70.5 h was found to be 14.7%.

For the compound `Cc1nc(CNC(=O)N2CCCC(c3ncc[nH]3)C2)sc1C` (centres undefined), the cytotoxicity at 70.5 h was -5.05%.

For the compound `CCC(CNC(=O)N1CCOCC2(CCOCC2)C1)c1ccccc1` (centres undefined), the cytotoxicity at 70.5 h was -5.59%.

Take `CC(C)CC(C)NCCCN1CCCN(C)CC1` (centres undefined): the cytotoxicity at 70.5 h came to 21.1%.

As to `COCCCN(Cc1ccc(F)cc1Cl)C1CCS(=O)(=O)C1` (centres undefined), the cytotoxicity at 70.5 h is 1.64%.

As to `CC(CCc1ccccc1)N1CCC(C(=O)NCc2ccccc2)CC1` (centres undefined), the cytotoxicity at 70.5 h came out at 0.455%.

With `O=S(=O)(Cc1ccc(F)cc1)NCCc1nnc2n1CCC2`, the cytotoxicity at 70.5 h was -18.4%.

Consider `CC(CCc1ccccc1)N1CCC(C(=O)Nc2ccccn2)CC1` (centres undefined), for which the cytotoxicity at 70.5 h was found to be 22%.

`CC(CCc1ccccc1)N1CCC(C(=O)Nc2cnccn2)CC1` (centres undefined): the cytotoxicity at 70.5 h is -19.2%.

Regarding `CCOC(=O)CCNC(=O)c1cc(Cl)cc2cccnc12`, the cytotoxicity at 70.5 h was -4.4%.

Take `CCS(=O)(=O)N(C)CCCNC(=O)c1cc(Cl)cc2cccnc12`: the cytotoxicity at 70.5 h was -11%.

Take `O=C(c1cc(Cl)c[nH]1)N1CCN(CCc2ccccn2)CC1`: the cytotoxicity at 70.5 h was -16%.

`COc1cc(I)c(Cl)cc1C(=O)N(C)CC(=O)NC(C)(C)C`: the cytotoxicity at 70.5 h is -23.4%.

Consider `CCn1ncc(C(=O)NCc2ccc(C)c(OC)c2)c1C(F)(F)F`, for which the cytotoxicity at 70.5 h was -21.3%.

With `O=C(Cn1cc(-n2cccc2)cn1)NCC(F)(F)F`, the cytotoxicity at 70.5 h is -12.8%.

Turning to `CN(Cc1nnc(-c2cccs2)o1)C(C(N)=O)c1cccc(F)c1` (centres undefined), the cytotoxicity at 70.5 h was -22%.

As for `Cc1ccc(NC(=O)NCCc2cnn(C)c2)c(N(C)C)n1`, the cytotoxicity at 70.5 h was 0.893%.

Take `Cc1ccc(NC(=O)NCCc2ccncc2C)c(N(C)C)n1`: the cytotoxicity at 70.5 h is -16.2%.

On to `Cc1cc(F)c(S(=O)(=O)Nc2ccn(CCC#N)n2)cc1F`, for which the cytotoxicity at 70.5 h is -16.3%.

Turning to `O=C(Cc1cccc(F)c1)NC1CCCc2cn[nH]c21` (centres undefined), the cytotoxicity at 70.5 h is -11.9%.

`O=S1(=O)CCN2C(=N1)Oc1ccc(S(=O)(=O)N3CCCC3)cc12`: the cytotoxicity at 70.5 h is -5.8%.

On to `Cc1cccc(N2CCN(C(=O)CCCC(=O)N(C)C)C(C)C2)n1` (centres undefined), for which the cytotoxicity at 70.5 h is -18.7%.

Regarding `CNC(=O)CN(C)C(=O)c1cc2ccccc2cc1OC`, the cytotoxicity at 70.5 h was -17.8%.

Regarding `N#Cc1ccccc1CN(CCO)Cc1ccsc1`, the cytotoxicity at 70.5 h was -14.1%.

With `CC(C)OCCCNC(=O)NCc1cccc(-n2ccnc2)c1`, the cytotoxicity at 70.5 h was -6.74%.

For `COCCN(Cc1cccc(O)c1)CC1CC1`, the cytotoxicity at 70.5 h turned out to be 29.9%.

With `CN(Cc1nnc(C2CC2)n1C)S(=O)(=O)c1ccccc1F`, the cytotoxicity at 70.5 h worked out at 4.23%.

Regarding `COC(=O)CC(C)(C)CC(=O)N1CCC(C(F)(F)F)CC1`, the cytotoxicity at 70.5 h turned out to be 1.71%.

For the compound `CC(Cn1cccn1)NC(=O)NCCN1CCCCCC1=O` (centres undefined), the cytotoxicity at 70.5 h turned out to be 2.55%.

On to `CNC(=O)C1CN(Cc2ccc(C#N)cc2F)c2ccccc2O1` (centres undefined), for which the cytotoxicity at 70.5 h came out at 1%.

As to `CC(C)(C)OC(=O)N1CSC[C@@H]1C(=O)NCc1cccc(C#N)c1`, the cytotoxicity at 70.5 h was -0.236%.

Turning to `CC(C)(C)OC(=O)N1CSC[C@@H]1C(=O)NCc1ccc(C#N)cc1`, the cytotoxicity at 70.5 h was -3.01%.

Take `CC(C)(C)OC(=O)N1CSC[C@@H]1C(=O)NCc1ccsc1`: the cytotoxicity at 70.5 h was -1.79%.

Take `CC(C)OCCC(=O)Nc1ncn(CC(=O)N2CCCCCC2)n1`: the cytotoxicity at 70.5 h is -1.46%.

Consider `O=C(CCc1ccco1)Nc1ncn(CC(=O)N2CCCCCC2)n1`, for which the cytotoxicity at 70.5 h was -2.03%.

Turning to `CC(C)(C)CNC(=O)CNC(=O)C1CC1`, the cytotoxicity at 70.5 h was 0.566%.

On to `Cc1cc2c(cc1C)C(NC1CC1)CCCO2` (centres undefined), for which the cytotoxicity at 70.5 h worked out at 0.0987%.

Turning to `NC(=O)N1CCCN(CCc2nc(-c3cccc(Cl)c3)no2)CC1`, the cytotoxicity at 70.5 h was determined as 4.65%.

For `Cc1nsc(N2CCCN(c3ccc(C#N)cn3)CC2)n1`, the cytotoxicity at 70.5 h is -0.603%.

Consider `C[S+]([O-])CCCNCc1cc(F)ccc1Br` (centres undefined), for which the cytotoxicity at 70.5 h worked out at 0.821%.

Regarding `CCC(C)(NCc1nnc(C(C)(C)C)o1)c1nccs1` (centres undefined), the cytotoxicity at 70.5 h is -0.157%.

For `COCCN1CC[C@]2(CN(C(=O)c3ccc[nH]3)C[C@H]2C)C1=O`, the cytotoxicity at 70.5 h is -7.41%.

Take `O=C(c1ccccc1)N1CCC2(CC1)CNc1c(F)cccc12`: the cytotoxicity at 70.5 h was -7.65%.

Turning to `CCS(=O)(=O)N1CCc2c(CN3CCOCC3)cncc2C1`, the cytotoxicity at 70.5 h is -4.84%.

`c1csc(CN2CCC3(CCOCC3COCC3CC3)CC2)n1` (centres undefined): the cytotoxicity at 70.5 h is -3.9%.

For the compound `Cc1ccc(CN2CCC3(CC2)COCCN3S(C)(=O)=O)o1`, the cytotoxicity at 70.5 h is -4.45%.
